Assay results published in patent publication US20160213742A1, “COMPOSITIONS AND METHODS FOR THE TREATMENT OF FUNGAL INFECTIONS” (priority 2013, published 2016).
“Also recorded” adds a separate entry of the source.

Assays:
human neutrophils = assay: Microfluidic Neutrophil Chemotaxis assay; assay type: cell-based; settings: for neutrophil (NF) migration counts (FIG. 1): 4 hour timepoint, in the presence of Aspergillus fumigatus, Compound 1, Compound 11, caspofungin acetate 10 nM, fMLP 100 nM, relative to A. fumigatus alone
Excerpt: Two layers of photoresist (SU8; […] The wafer with patterned photoresist was used as a mold to produce polydimethylsiloxane (PDMS) (Fisher Scientific) devices, which were then bonded to the base of glass-bottom 12- or 24-well plates, using an oxygen plasma machine (Nordson-March). De-identified, fresh human blood samples from healthy volunteers, aged 18 years and older, who were not receiving immunosuppressants, were purchased from Research Blood Components, LLC. Peripheral blood was drawn in tubes containing a final concentration of 5 mM EDTA (Vacutainer; Becton Dickinson) and processed within 2 h of blood collection. Using a sterile technique, neutrophils were isolated from whole blood using HetaSep followed by the EasySep Human Neutrophil Enrichment Kit (STEMCELL Technologies) following the manufacturer's protocol. The purity of neutrophils was assessed to be >98% using the Sysmex KX-21N Hematology Analyzer (Sysmex America, Inc.). White blood cells were isolated using Hetasep followed by a 5 min spin down and wash with 1×PBS. White blood cells were stained with Hoechst (32.4 μM) (Sigma) following the manufacture's protocols. The final aliquots of white blood cells were resuspended in RPMI plus 10% fetal bovine serum (FBS−stock 50 mL FBS/450 mL RPMI) (Sigma-Aldrich) at a concentration of 20,000 cells/2 μL and kept at 37° C. Cells were then immediately introduced into the microfluidic device for the chemotaxis and Aspergillus fumigatus killing assay. All experiments were repeated at least three times with neutrophils or white blood cells from three different healthy donors. Immediately after bonding to the well plate, donut-shaped devices were filled with Aspergillus fumigatus conidia at a concentration of 10^6 cells/mL with or without either Compound 1 or Compound 11 [10 nM], caspofungin acetate [10 nM] and/or a solution of the chemoattractant N-formyl-methionyl-leucyl-phenylalanine (fMLP) [100 nM](Sigma-Aldrich, St. Louis, Mo.). The device was then placed in a vacuum for 15 min. The solution filled all of the FCCs as the air was displaced. The devices were then vigorously washed five times with 1×PBS to remove any residual Aspergillus fumigatus conidia, drug or chemoattractant that was outside of the FCCs. The device was then submerged in 0.5 mL of cell media. Neutrophils or white blood cells (20,000 cells/2 μL) were then pipetted into the cell loading chamber (CLC) using a gel-loading pipette tip. […] Image analysis of cell migration counts and fungi growth was analyzed by hand using Image J software. Neutrophil counts per chamber were counted every 15 min for the first 2 hours of the experiment and then every hour for the remaining 16 hours. Percentage of conidia that converted to hyphal growth was measured by counting conidia loaded per chamber before neutrophils or WBCs were loaded into the chamber and counting numbers of these conidia that grew hyphae by 18 hours. Fungal growth velocity was calculated using Image J. The 16 chambers in each device (n=3) were analyzed for at least three different healthy donors.

[1] = tested on: Aspergillus fumigatus strain AF293; assay: Microfluidic Aspergillus fumigatus Killing Assay with human neutrophils; assay type: cell-based; settings: for percent hyphal growth compared to remaining conidia (FIG. 2): with added neutrophils (NFs), Compound 1, Compound 11, caspofungin acetate 10 nM, fMLP 100 nM, hyphae by 18 hours; for timecourse of A. fumigatus (Af) growth in FCCs (FIG. 4): in presence of PMNs, three healthy blood donors, t=0, 8, and 16 hours
Excerpt: Microfluidic devices used to measure leukocyte migration in response to Aspergillus fumigatus with or without drug (Compound 1 or Compound 11), antifungal control (caspofungin acetate) and/or chemoattractant (fMLP) were manufactured using known microfabrication techniques. Two layers of photoresist (SU8; Microchem), the first one 10 μm thin (corresponding to the migration channels) and the second one 70 μm thick, corresponding to the focal chemotactic chambers (FCCs) were patterned on one silicon wafer sequentially using two photolithographic masks and processing cycles according to the instructions from the manufacturer. The wafer with patterned photoresist was used as a mold to produce polydimethylsiloxane (PDMS) (Fisher Scientific) devices, which were then bonded to the base of glass-bottom 12- or 24-well plates, using an oxygen plasma machine (Nordson-March).
Aspergillus fumigatus strain AF293 expressing either cytosolic red fluorescent protein (RFP) or green fluorescent protein (GFP) was grown on Sabouraud dextrose agar plates supplemented with 100 μg/mL ampicillin at 30° C. for 3-4 days. Conidia were harvested by gentle scraping followed by washing in ice-cold phosphate buffered saline (PBS) three times. Conidia were immediately used or stored at 4° C. for use within one week.
De-identified, fresh human blood samples from healthy volunteers, aged 18 years and older, who were not receiving immunosuppressants, were purchased from Research Blood Components, LLC. Peripheral blood was drawn in tubes containing a final concentration of 5 mM EDTA (Vacutainer; Becton Dickinson) and processed within 2 h of blood collection. Using a sterile technique, neutrophils were isolated from whole blood using HetaSep followed by the EasySep Human Neutrophil Enrichment Kit ([…] Technologies) following the manufacturer's protocol. The purity of neutrophils was assessed to be >98% using the Sysmex KX-21N Hematology Analyzer (Sysmex America, Inc.). White blood cells were isolated using Hetasep followed by a 5 min spin down and wash with 1×PBS. White blood cells were stained with Hoechst (32.4 μM) (Sigma) following the manufacture's protocols. The final aliquots of white blood cells were resuspended in RPMI plus 10% fetal bovine serum (FBS−stock 50 mL FBS/450 mL RPMI) (Sigma-Aldrich) at a concentration of 20,000 cells/2 μL and kept at 37° C. Cells were then immediately introduced into the microfluidic device for the chemotaxis and Aspergillus fumigatus killing assay. All experiments were repeated at least three times with neutrophils or white blood cells from three different healthy donors.
Immediately after bonding to the well plate, donut-shaped devices were filled with Aspergillus fumigatus conidia at a concentration of 10^6 cells/mL with or without either Compound 1 or Compound 11 [10 nM], caspofungin acetate [10 nM] and/or a solution of the chemoattractant N-formyl-methionyl-leucyl-phenylalanine (fMLP) [100 nM](Sigma-Aldrich, St. Louis, Mo.). The device was then placed in a vacuum for 15 min. The solution filled all of the FCCs as the air was displaced. The devices were then vigorously washed five times with 1×PBS to remove any residual Aspergillus fumigatus conidia, drug or chemoattractant that was outside of the FCCs. The device was then submerged in 0.5 mL of cell media. Neutrophils or white blood cells (20,000 cells/2 μL) were then pipetted into the cell loading chamber (CLC) using a gel-loading pipette tip. Neutrophil migration into the migration channel toward the FCC started immediately and was recorded using time-lapse imaging on a fully automated Nikon TiE microscope (10× magnification) with biochamber heated to 37° C. with 5% carbon dioxide gas. Image analysis of cell migration counts and fungi growth was analyzed by hand using Image J software.
Image analysis of cell migration counts and fungi growth was analyzed by hand using Image J software.

Molecule	neutrophil (NF) migration counts (FIG. 1) (human neutrophils)	percent hyphal growth compared to remaining conidia (FIG. 2) [1]	timecourse of neutrophil (PMNs) migration in FCCs (FIG. 4) (human neutrophils; with A. fumigatus, three healthy blood donors, t=0, 8, and 16 hours)	timecourse of A. fumigatus (Af) growth in FCCs (FIG. 4) [1]
CC[C@H](C)C[C@H](C)CCCCCCCCC(=O)N[C@H]1C[C@@H](O)[C@@H](NCCN)NC(=O)[C@@H]2[C@@H](O)CCN2C(=O)[C@H]([C@H](O)CCNC(=O)[C@H](Cc2ccccc2)NC(=O)[C@H](CC(C)C)NC(=O)[C@H](CCSC)NC=O)NC(=O)[C@H]([C@H](O)[C@@H](O)c2ccc(O)cc2)NC(=O)[C@@H]2C[C@@H](O)CN2C(=O)[C@H]([C@@H](C)O)NC1=O [Compound 1]	increased NF migration	inhibition of Aspergillus fumigatus hyphal growth; also recorded: able to suppress hyphal growth	–	–
CC[C@H](C)C[C@H](C)CCCCCCCCC(=O)N[C@H]1C[C@@H](O)[C@@H](OCCN)NC(=O)[C@@H]2[C@@H](O)CCN2C(=O)[C@H]([C@H](O)CCNC(=O)[C@H](Cc2ccccc2)NC(=O)[C@H](CC(C)C)NC(=O)[C@H](CCSC)NC=O)NC(=O)[C@H]([C@H](O)[C@@H](O)c2ccc(O)cc2)NC(=O)[C@@H]2C[C@@H](O)CN2C(=O)[C@H]([C@@H](C)O)NC1=O [Compound 11]	increased NF migration	inhibition of Aspergillus fumigatus hyphal growth; also recorded: able to suppress hyphal growth	migration of PMNs	inhibition of growth of Af
caspofungin acetate [reference compound]	did not give increased NF migration	–	–	growth of Af
